Consider four molecules from PubChem BioAssay AID1259407 (Chemical Carcinogenesis Research Information System (CCRIS), 2018).

Calls of active or inactive are those of the source. The rule behind the calls is not given here.

The test system of the series is CCRIS mutagenicity, Ames/micronucleus/aberration tests. In words: CCRIS mutagenicity studies.
Setting [1] is: Test System: AMES SALMONELLA TYPHIMURIUM, Strain/Indicator: TA98, Metabolic Activation: NONE, Method: PREINCUBATION
The mark [2] stands for this setting: Test System: AMES SALMONELLA TYPHIMURIUM, Strain/Indicator: TA100, Metabolic Activation: NONE, Method: PREINCUBATION
The mark [3] stands for this setting: Test System: AMES SALMONELLA TYPHIMURIUM, Strain/Indicator: TA100, Metabolic Activation: RAT, LIVER, S-9, PCB, Method: PREINCUBATION
Setting [4] is: Test System: AMES SALMONELLA TYPHIMURIUM, Strain/Indicator: TA1537, Metabolic Activation: NONE, Method: PREINCUBATION
[5] abbreviates: Test System: AMES SALMONELLA TYPHIMURIUM, Strain/Indicator: TA1535, Metabolic Activation: NONE, Method: PREINCUBATION

Consider `O=C1c2ccccc2C(=O)c2c(O)cc(O)cc21`, for which the mutagenic call by setting is: under setting [1], “inactive; negative”; (Test System: AMES SALMONELLA TYPHIMURIUM, Strain/Indicator: TA98, Metabolic Activation: RAT, LIVER, S-9, PCB, Method: PREINCUBATION) “active; positive”; under setting [2], “inactive; negative”; under setting [3], “active; positive”; under setting [4], “active; positive”; (Test System: AMES SALMONELLA TYPHIMURIUM, Strain/Indicator: TA1537, Metabolic Activation: RAT, LIVER, S-9, Method: PREINCUBATION) “active; positive”. Besides, the mutagenic call by setting is: (Test System: CHINESE HAMSTER V-79, Strain/Indicator: V-79/8-AZAGUANINE, Metabolic Activation: NONE, Method: STANDARD PLATE) “active; positive”; (Test System: CHINESE HAMSTER V-79, Strain/Indicator: V-79/8-AZAGUANINE, Metabolic Activation: PRIMARY RAT HEPATOCYTES, Method: STANDARD PLATE) “active; positive”; (Test System: UDS RODENT HEPATOCYTES, Strain/Indicator: THY INCORP (NON-S-PHASE), Metabolic Activation: NONE, Method: AUTORADIOGRAPHY) “active; positive”.
For the molecule `O=C(O)c1ccccc1-c1c2ccc(=O)cc-2oc2cc(O)ccc12`, the mutagenic call runs as follows: (End Point: IN VITRO CHROMOSOMAL ABERRATIONS, Test System: CHO-LB CELLS, Metabolic Activation: NONE) “inactive; negative”; (End Point: IN VITRO CHROMOSOMAL ABERRATIONS, Test System: CHO-LB CELLS, Metabolic Activation: RAT, LIVER, S-9, AROCLOR 1254) “inactive; negative”; (Test System: AMES SALMONELLA TYPHIMURIUM, Strain/Indicator: TA98, Metabolic Activation: HAMSTER, LIVER, S-9, AROCLOR 1254 (10%), Method: PREINCUBATION) “inactive; negative”; under setting [1], “inactive; negative”; (Test System: AMES SALMONELLA TYPHIMURIUM, Strain/Indicator: TA98, Metabolic Activation: RAT, LIVER, S-9, AROCLOR 1254 (10%), Method: PREINCUBATION) “inactive; negative”; (Test System: AMES SALMONELLA TYPHIMURIUM, Strain/Indicator: TA100, Metabolic Activation: HAMSTER, LIVER, S-9, AROCLOR 1254 (10%), Method: PREINCUBATION) “inactive; negative”. In addition, the mutagenic call under setting [2] was “inactive; negative”; the mutagenic call (Test System: AMES SALMONELLA TYPHIMURIUM, Strain/Indicator: TA100, Metabolic Activation: RAT, LIVER, S-9, AROCLOR 1254 (10%), Method: PREINCUBATION) is “inactive; negative”; the mutagenic call (Test System: AMES SALMONELLA TYPHIMURIUM, Strain/Indicator: TA1535, Metabolic Activation: HAMSTER, LIVER, S-9, AROCLOR 1254 (10%), Method: PREINCUBATION) is “inactive; negative”; the mutagenic call under setting [5] was “inactive; negative”; the mutagenic call (Test System: AMES SALMONELLA TYPHIMURIUM, Strain/Indicator: TA1535, Metabolic Activation: RAT, LIVER, S-9, AROCLOR 1254 (10%), Method: PREINCUBATION) was “inactive; negative”; the mutagenic call (Test System: AMES SALMONELLA TYPHIMURIUM, Strain/Indicator: TA1537, Metabolic Activation: HAMSTER, LIVER, S-9, AROCLOR 1254 (10%), Method: PREINCUBATION) was “inactive; negative”. The mutagenic call reads like this: under setting [4], “inactive; negative”; (Test System: AMES SALMONELLA TYPHIMURIUM, Strain/Indicator: TA1537, Metabolic Activation: RAT, LIVER, S-9, AROCLOR 1254 (10%), Method: PREINCUBATION) “inactive; negative”.
In the case of `[N-]=[N+]=NC[C@H](O)c1ccccc1`, the mutagenic call under setting [3] was “active; positive”.
As for `O=C(O)c1ccccc1Cl`, the mutagenic call was “inactive; negative” (Test System: AMES SALMONELLA TYPHIMURIUM, Strain/Indicator: TA97, Metabolic Activation: HAMSTER, LIVER, S-9, AROCLOR 1254 (10 OR 30%), Method: PREINCUBATION); “inactive; negative” (Test System: AMES SALMONELLA TYPHIMURIUM, Strain/Indicator: TA97, Metabolic Activation: NONE, Method: PREINCUBATION); “inactive; negative” (Test System: AMES SALMONELLA TYPHIMURIUM, Strain/Indicator: TA97, Metabolic Activation: RAT, LIVER, S-9, AROCLOR 1254 (10 OR 30%), Method: PREINCUBATION); “inactive; negative” (Test System: AMES SALMONELLA TYPHIMURIUM, Strain/Indicator: TA98, Metabolic Activation: HAMSTER, LIVER, S-9, AROCLOR 1254 (10 OR 30%), Method: PREINCUBATION); “inactive; negative” under setting [1]; “inactive; negative” (Test System: AMES SALMONELLA TYPHIMURIUM, Strain/Indicator: TA98, Metabolic Activation: RAT LIVER S-9, PCB, Method: PREINCUBATION). Also, the mutagenic call (Test System: AMES SALMONELLA TYPHIMURIUM, Strain/Indicator: TA98, Metabolic Activation: RAT LIVER S-9, PHENOBARBITAL AND BETA-NAPHTHOFLAVONE, Method: PREINCUBATION) is “inactive; negative”; the mutagenic call (Test System: AMES SALMONELLA TYPHIMURIUM, Strain/Indicator: TA98, Metabolic Activation: RAT, LIVER, S-9, AROCLOR 1254 (10 OR 30%), Method: PREINCUBATION) is “inactive; negative”; the mutagenic call (Test System: AMES SALMONELLA TYPHIMURIUM, Strain/Indicator: TA100, Metabolic Activation: HAMSTER, LIVER, S-9, AROCLOR 1254 (10 OR 30%), Method: PREINCUBATION) is “inactive; negative”; the mutagenic call under setting [2] was “inactive; negative”; the mutagenic call (Test System: AMES SALMONELLA TYPHIMURIUM, Strain/Indicator: TA100, Metabolic Activation: RAT LIVER S-9, PCB, Method: PREINCUBATION) was “inactive; negative”; the mutagenic call (Test System: AMES SALMONELLA TYPHIMURIUM, Strain/Indicator: TA100, Metabolic Activation: RAT LIVER S-9, PHENOBARBITAL AND BETA-NAPHTHOFLAVONE, Method: PREINCUBATION) was “inactive; negative”. The mutagenic call was “inactive; negative” (Test System: AMES SALMONELLA TYPHIMURIUM, Strain/Indicator: TA100, Metabolic Activation: RAT, LIVER, S-9, AROCLOR 1254 (10 OR 30%), Method: PREINCUBATION); “inactive; negative” (Test System: AMES SALMONELLA TYPHIMURIUM, Strain/Indicator: TA104, Metabolic Activation: NONE, Method: PREINCUBATION); “inactive; negative” (Test System: AMES SALMONELLA TYPHIMURIUM, Strain/Indicator: TA104, Metabolic Activation: RAT LIVER S-9, PCB, Method: PREINCUBATION); “inactive; negative” (Test System: AMES SALMONELLA TYPHIMURIUM, Strain/Indicator: TA1535, Metabolic Activation: HAMSTER, LIVER, S-9, AROCLOR 1254 (10 OR 30%), Method: PREINCUBATION); “inactive; negative” under setting [5]; “inactive; negative” (Test System: AMES SALMONELLA TYPHIMURIUM, Strain/Indicator: TA1535, Metabolic Activation: RAT LIVER S-9, PHENOBARBITAL AND BETA-NAPHTHOFLAVONE, Method: PREINCUBATION). The mutagenic call was “inactive; negative” (Test System: AMES SALMONELLA TYPHIMURIUM, Strain/Indicator: TA1535, Metabolic Activation: RAT, LIVER, S-9, AROCLOR 1254 (10 OR 30%), Method: PREINCUBATION); “inactive; negative” (Test System: AMES SALMONELLA TYPHIMURIUM, Strain/Indicator: TA1537, Metabolic Activation: HAMSTER, LIVER, S-9, AROCLOR 1254 (30%), Method: PREINCUBATION); “inactive; negative” under setting [4]; “inactive; negative” (Test System: AMES SALMONELLA TYPHIMURIUM, Strain/Indicator: TA1537, Metabolic Activation: RAT LIVER S-9, PHENOBARBITAL AND BETA-NAPHTHOFLAVONE, Method: PREINCUBATION); “inactive; negative” (Test System: AMES SALMONELLA TYPHIMURIUM, Strain/Indicator: TA1537, Metabolic Activation: RAT, LIVER, S-9, AROCLOR 1254 (30%), Method: PREINCUBATION); “inactive; negative” (Test System: AMES SALMONELLA TYPHIMURIUM, Strain/Indicator: TA1538, Metabolic Activation: NONE, Method: PREINCUBATION). The mutagenic call by setting is: (Test System: AMES SALMONELLA TYPHIMURIUM, Strain/Indicator: TA1538, Metabolic Activation: RAT LIVER S-9, PHENOBARBITAL AND BETA-NAPHTHOFLAVONE, Method: PREINCUBATION) “inactive; negative”; (Test System: E.COLI, Strain/Indicator: WP2 UVRA, Metabolic Activation: NONE, Method: PREINCUBATION) “inactive; negative”; (Test System: E.COLI, Strain/Indicator: WP2UVRA, Metabolic Activation: NONE, Method: PREINCUBATION) “inactive; negative”; (Test System: E.COLI, Strain/Indicator: WP2 UVRA, Metabolic Activation: RAT LIVER S-9, PCB, Method: PREINCUBATION) “inactive; negative”; (Test System: E.COLI, Strain/Indicator: WP2UVRA, Metabolic Activation: RAT LIVER S-9, PHENOBARBITAL AND BETA-NAPHTHOFLAVONE, Method: PREINCUBATION) “inactive; negative”.
